Series [1] in a line: Solubility observed in work-up. As to conditions: in water and ethyl acetate.
Series [2] deals with Pseudomonas aeruginosa (ATCC 27853). Nature of the series: microbe, parasite or virus in culture. The series is classed as cell-based. The settings on record: for zone of inhibition at 100 µM / zone of inhibition at 500 µM / zone of inhibition at 1000 µM: Pseudomonas aeruginosa, ATCC27853, read-out: Zone of inhibition (diameter, in millimeter) P. aeruginosa; for zone of inhibition at 100 µM: Conc. 0.1 mM; for zone of inhibition at 500 µM: Conc. 0.5 mM; for zone of inhibition at 1000 µM: Conc. 1.0 mM.

Series [3] has as its system Burkholderia thailandensis (E 264). Nature of the series: microbe, parasite or virus in culture. As to conditions: for zone of inhibition at 100 µM / zone of inhibition at 500 µM / zone of inhibition at 1000 µM: Burkholderia thailandensis, read-out: Zone of inhibition (diameter, in millimeter) B. thailandensis; for zone of inhibition at 100 µM: Conc. 0.1 mM; for zone of inhibition at 500 µM: Conc. 0.5 mM; for zone of inhibition at 1000 µM: Conc. 1.0 mM. The series is classed as cell-based.

A further series deals with BtIspE. Format: binding, Burkholderia thailandensis.
Series [4] deals with T1, Mycobacterium paratuberculosis (Mp) IspD (Mycolicibacterium paratuberculosis, UniProt Q743W5).
T1 sequence (Q743W5 1-235): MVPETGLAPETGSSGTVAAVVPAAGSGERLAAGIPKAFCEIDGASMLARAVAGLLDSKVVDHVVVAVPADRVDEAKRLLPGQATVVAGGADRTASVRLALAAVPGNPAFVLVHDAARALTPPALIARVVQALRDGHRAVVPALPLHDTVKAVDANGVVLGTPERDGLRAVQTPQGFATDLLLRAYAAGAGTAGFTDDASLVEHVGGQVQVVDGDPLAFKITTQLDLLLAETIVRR
Format: binding.

For the next series, the target named is T2, BtIspD (Burkholderia thailandensis, UniProt Q2SWT6).
T2 construct: 6xHis (AVA0421 vector, 3C-cleavable) (N, cleaved yes); made in house; host or cells: E. coli BL21(DE3)R3 Rosetta Oxford
T2 sequence (Q2SWT6 1-236): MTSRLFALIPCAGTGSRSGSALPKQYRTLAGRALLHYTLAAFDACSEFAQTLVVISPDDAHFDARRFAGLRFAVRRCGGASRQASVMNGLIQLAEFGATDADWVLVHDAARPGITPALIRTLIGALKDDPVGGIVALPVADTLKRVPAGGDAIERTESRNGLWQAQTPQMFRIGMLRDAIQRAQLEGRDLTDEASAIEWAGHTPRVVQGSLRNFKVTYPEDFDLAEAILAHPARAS
Format: binding.

Series [5] deals with Mycobacterium abscessus (Ma) IspE. Format: binding.
The target in the next series is BpIspF (Burkholderia pseudomallei, UniProt Q63T71). The series is classed as binding, B. pseudomallei.

Molecules are shown by their SMILES. Entries after “also recorded” stand apart in the source; their conditions may differ.

BpIspF, sequence (Q63T71 whole entry, looked up): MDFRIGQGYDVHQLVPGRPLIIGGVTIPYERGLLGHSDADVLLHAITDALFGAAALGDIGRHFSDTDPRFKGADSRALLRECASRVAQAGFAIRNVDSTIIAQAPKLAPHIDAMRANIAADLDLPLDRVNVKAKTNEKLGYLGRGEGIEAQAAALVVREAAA

As for `Cn1ncc2c(NCCO)ncnc21` [Compound 3], the melting point (commonly the temperature of the solid-liquid transition) was in the range of 196 to 198 °C. Further, the “solubility (in words)” value in series [1] was “partially soluble”. For the same molecule, in [2], the zone of inhibition – broadly, the size of the clear area around the sample on an inoculated plate – at 100 µM amounted to 0 mm; the zone of inhibition at 500 µM is 15 mm; the zone of inhibition at 1000 µM amounted to 21 mm. In addition, in series [3], the zone of inhibition at 100 µM turned out to be 0 mm, the zone of inhibition at 500 µM came to 0 mm and the zone of inhibition at 1000 µM is 0 mm.
`Cn1ncc2c(NCc3cccc(F)c3)ncnc21` [Compound 14] came in with a melting point of 176 to 177 °C. For the same molecule, in series [2], the zone of inhibition at 100 µM was 0 mm, the zone of inhibition at 500 µM was 10 mm and the zone of inhibition at 1000 µM worked out at 15 mm. In series [3], the zone of inhibition at 100 µM is 0 mm, the zone of inhibition at 500 µM was 6 mm and the zone of inhibition at 1000 µM is 11 mm. Also, in the series with BtIspE, the “STD-NMR binding to BtIspE (in words)” value was “high % STD values”.
`Cn1ncc2c(NCc3ccc(Cl)cc3)ncnc21` [Compound 17] had a melting point of 197 to 199 °C. Moreover, the “fragment binding to MpIspD (in words)” value in series [4] is “hit and clear fragment binder”. Besides, at BtIspD, the “STD-NMR binding to BtIspD (in words)” value is reported as “strongest binders”. Also, in series [2], the “growth inhibition of P. aeruginosa (in words)” value is “did not show measurable growth inhibition”, the zone of inhibition at 100 µM was 0 mm, the zone of inhibition at 500 µM amounted to 0 mm and the zone of inhibition at 1000 µM stood at 0 mm. Also, in series [3], the “growth inhibition of B. thailandensis (in words)” value is recorded as “did not show measurable growth inhibition”, the zone of inhibition at 100 µM came out at 0 mm, the zone of inhibition at 500 µM amounted to 0 mm and the zone of inhibition at 1000 µM was 0 mm. Further, in series [5], the “fragment binding to MaIspE (in words)” value was “hit and clear fragment binder”. On BpIspF, the “fragment binding to BpIspF (in words)” value is “very weak binder below the STD-NMR hit threshold”.
`Cn1ncc2c(NCc3ccc(Cl)c(Cl)c3)ncnc21` [Compound 18] displayed a melting point of 170 to 173 °C. Besides, the “STD-NMR binding to BtIspD (in words)” value at BtIspD is “strongest binders”. For the same molecule, in series [2], the zone of inhibition at 100 µM amounted to 0 mm, the zone of inhibition at 500 µM was determined as 10 mm and the zone of inhibition at 1000 µM was 20 mm. Also, in series [3], the zone of inhibition at 100 µM was 0 mm, the zone of inhibition at 500 µM was determined as 12 mm and the zone of inhibition at 1000 µM was 18 mm. In addition, the “STD-NMR binding to BtIspE (in words)” value in the series on BtIspE is on record as “high % STD values”.
In the case of `Cn1ncc2c(NCCc3ccc(O)cc3)ncnc21` [Compound 25], the melting point was 182 to 184 °C. Further, at BtIspD, the “STD-NMR binding to BtIspD (in words)” value is “strongest binders”. Besides, in [2], the “growth inhibition of P. aeruginosa (in words)” value is given as “Activity was not detected; also recorded: did not show zone of inhibition activity”, the zone of inhibition at 100 µM came to 0 mm, the zone of inhibition at 500 µM turned out to be 0 mm and the zone of inhibition at 1000 µM was determined as 0 mm. Moreover, in series [3], the “growth inhibition of B. thailandensis (in words)” value is given as “Activity was not detected; also recorded: did not show zone of inhibition activity”, the zone of inhibition at 100 µM came to 0 mm, the zone of inhibition at 500 µM was found to be 0 mm and the zone of inhibition at 1000 µM was 0 mm. Moreover, in the series with BtIspE, the “STD-NMR binding to BtIspE (in words)” value is on record as “weaker binder”, the “change of % STD binding signal to BtIspE after subsequent addition of CDP” value is “loses all binding signal entirely” and the “change of % STD binding signal to BtIspE upon addition of ADP” value is “no change”.
`Cn1ncc2c(NCCc3ccc(Cl)cc3Cl)ncnc21` [Compound 29] showed a melting point of 145 to 147 °C. The “STD-NMR binding to BtIspD (in words)” value at BtIspD was “strongest binders”. In series [2], the “concentration at which inhibitory activity against kanamycin resistant P. aeruginosa is shown” value is 0.5 mM, the “growth inhibition of P. aeruginosa (in words)” value is reported as “measurable potency”, the zone of inhibition at 100 µM was determined as 0 mm and the zone of inhibition at 500 µM was 12 mm. Moreover, the zone of inhibition at 1000 µM in series [2] was 18 mm. In series [3], the “growth inhibition of B. thailandensis (in words)” value was “most potent compound tested”, the zone of inhibition at 100 µM was determined as 6 mm, the zone of inhibition at 500 µM amounted to 10 mm and the zone of inhibition at 1000 µM is 18 mm. For the same molecule, in the series on BtIspE, the “STD-NMR binding to BtIspE (in words)” value was “high % STD values; also recorded: highest % STD value; also recorded: significant interactions with the active site of BtIspE”.

The record behind these values is patent publication US10155766B2, “Pyrazolopyrimidine antibacterial agents” (priority 2016, dated 2018).
